Measurements as given in patent US10780074B2, “Compounds and uses thereof” (Sunovion Pharmaceuticals Inc., priority 2017, dated 2020).
Structures can show the parent of a compound that is named as a salt.

Tested on: behaviors of compound-treated mice
Test: Neuropharmacological Assay (SmartCube)
Format: in vivo
Conditions: for minimal effective dose: Mus musculus, ip, 0.25 h, dose having 50% or more total activity in SmartCube, i.p., read-out: MED (minimal effective dose); for AD: ADHD (probability that activity matches class) / AG: analgesic (probability that activity matches class) / AX: anxiolytic (probability that activity matches class) / CE: cognitive enhancer (probability that activity matches class) / DP: anti-depressant (probability that activity matches class) / MS: mood stabilizer (probability that activity matches class) / PS: anti-psychotic (probability that activity matches class) / SD: sedative hypnotic (probability that activity matches class) / UN: uncharacterized CNS activity (probability that activity matches class): i.p. 15 min before behavioral test, most efficacious dose(s) of 3 doses
Procedure, shortened: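 Mice dosed i.p. 15 min before testing, with compound in N-methyl-2-pyrrolidone/PEG/propylene glycol, were video-recorded and algorithmically compared with reference-drug behavioral signatures. This gave class-match probabilities (antidepressant, anxiolytic, etc.) at the most efficacious of 3 doses. MED was defined as the dose with ≥50% total activity, usually tested across 0.3–30 mpk.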

Structure (SMILES)	minimal effective dose [mg/kg]	AD: ADHD (probability that activity matches class)	AG: analgesic (probability that activity matches class)	AX: anxiolytic (probability that activity matches class)	CE: cognitive enhancer (probability that activity matches class)	DP: anti-depressant (probability that activity matches class)	MS: mood stabilizer (probability that activity matches class)	PS: anti-psychotic (probability that activity matches class)	SD: sedative hypnotic (probability that activity matches class)	UN: uncharacterized CNS activity (probability that activity matches class)
CNC[C@H]1OCCc2c(-c3cncnc3)cccc21 (single isomer, unassigned) [Compound 30, hydrochloride salt]	3 to 10	++ (5% ≤ ++ <25%)	++ (5% ≤ ++ <25%)	++ (5% ≤ ++ <25%)	++ (5% ≤ ++ <25%)	++++ (50% ≤ ++++)	+ (LOQ ≤ + <5%)	+ (LOQ ≤ + <5%)	+ (LOQ ≤ + <5%)	+ (LOQ ≤ + <5%)
CNC[C@H]1OCCc2c(-c3ccno3)cccc21 [Compound 95, (S)-1-(5-(Isoxazol-5-yl)isochroman-1-yl)-N-methylmethanamine]	≤ 3	++++ (50% ≤ ++++)	+ (LOQ ≤ + <5%)	++ (5% ≤ ++ <25%)	+ (LOQ ≤ + <5%)	++++ (50% ≤ ++++)	+ (LOQ ≤ + <5%)	+ (LOQ ≤ + <5%)	++ (5% ≤ ++ <25%)	++ (5% ≤ ++ <25%)
CNC[C@H]1OCCc2c(-c3ccon3)cccc21 (single isomer, unassigned) [Compound 91, hydrochloride salt]	≤ 3	++++ (50% ≤ ++++)	+ (LOQ ≤ + <5%)	++ (5% ≤ ++ <25%)	+ (LOQ ≤ + <5%)	++++ (50% ≤ ++++)	+ (LOQ ≤ + <5%)	+ (LOQ ≤ + <5%)	++ (5% ≤ ++ <25%)	+++ (25% ≤ +++ <50%)
NC[C@H]1OCc2c(-c3ccccn3)cccc21 (single isomer, unassigned) [Compound 42]	10 to 30	+ (LOQ ≤ + <5%)	+++ (25% ≤ +++ <50%)	++ (5% ≤ ++ <25%)	++ (5% ≤ ++ <25%)	++ (5% ≤ ++ <25%)	+ (LOQ ≤ + <5%)	+ (LOQ ≤ + <5%)	+ (LOQ ≤ + <5%)	++ (5% ≤ ++ <25%)
CNC[C@@H]1OCCc2c(-c3cccnc3)cccc21 (single isomer, unassigned) [Compound 7, bis-hydrochloride]	10 to 30	++ (5% ≤ ++ <25%)	+ (LOQ ≤ + <5%)	++ (5% ≤ ++ <25%)	+ (LOQ ≤ + <5%)	+++ (25% ≤ +++ <50%)	+ (LOQ ≤ + <5%)	+ (LOQ ≤ + <5%)	+ (LOQ ≤ + <5%)	+ (LOQ ≤ + <5%)
CNC[C@H]1OCCc2c(-c3ncc[nH]3)cccc21 [Compound 111, (S)-1-(5-(1H-Imidazol-2-yl)isochroman-1-yl)-N-methylmethanamine hydrochloride salt]	10 to 30	+ (LOQ ≤ + <5%)	+ (LOQ ≤ + <5%)	++ (5% ≤ ++ <25%)	+ (LOQ ≤ + <5%)	+ (LOQ ≤ + <5%)	+ (LOQ ≤ + <5%)	+ (LOQ ≤ + <5%)	+ (LOQ ≤ + <5%)	+ (LOQ ≤ + <5%)
NC[C@H]1OCCc2c(-c3ccncc3)cccc21 [Compound 20, (S)-(5-(Pyridin-4-yl)isochroman-1-yl)methanamine hydrochloride salt]	≤ 3	++ (5% ≤ ++ <25%)	++ (5% ≤ ++ <25%)	++ (5% ≤ ++ <25%)	+ (LOQ ≤ + <5%)	++++ (50% ≤ ++++)	+ (LOQ ≤ + <5%)	+ (LOQ ≤ + <5%)	+ (LOQ ≤ + <5%)	++++ (50% ≤ ++++)
NC[C@@H]1OCCc2c(-c3cncs3)cccc21 (single isomer, unassigned) [Compound 70, hydrochloride salt]	3 to 10	++ (5% ≤ ++ <25%)	+ (LOQ ≤ + <5%)	++ (5% ≤ ++ <25%)	+ (LOQ ≤ + <5%)	++++ (50% ≤ ++++)	+ (LOQ ≤ + <5%)	+ (LOQ ≤ + <5%)	+ (LOQ ≤ + <5%)	+++ (25% ≤ +++ <50%)
CNC[C@H]1OCCc2c(-c3cnoc3)cccc21 (single isomer, unassigned) [Compound 85, hydrochloride salt]	≤ 3	++ (5% ≤ ++ <25%)	+ (LOQ ≤ + <5%)	++ (5% ≤ ++ <25%)	+ (LOQ ≤ + <5%)	++++ (50% ≤ ++++)	+ (LOQ ≤ + <5%)	+ (LOQ ≤ + <5%)	+ (LOQ ≤ + <5%)	++ (5% ≤ ++ <25%)
NC[C@H]1OCCc2c(-c3cncnc3)cccc21 (single isomer, unassigned) [Compound 28, hydrochloride salt]	3 to 10	++ (5% ≤ ++ <25%)	++ (5% ≤ ++ <25%)	++ (5% ≤ ++ <25%)	++ (5% ≤ ++ <25%)	+++ (25% ≤ +++ <50%)	+ (LOQ ≤ + <5%)	++ (5% ≤ ++ <25%)	+ (LOQ ≤ + <5%)	++ (5% ≤ ++ <25%)
NC[C@@H]1OCCCc2c(-c3cncs3)cccc21 (single isomer, unassigned) [Compound 170, hydrochloride salt]	3 to 10	+ (LOQ ≤ + <5%)	+ (LOQ ≤ + <5%)	++ (5% ≤ ++ <25%)	+ (LOQ ≤ + <5%)	++ (5% ≤ ++ <25%)	+ (LOQ ≤ + <5%)	+ (LOQ ≤ + <5%)	++ (5% ≤ ++ <25%)	+++ (25% ≤ +++ <50%)
CNCC1OCCc2c(-c3cnccn3)cccc21 (stereo not shown) [Compound 56, N-Methyl-1-(5-(pyrazin-2-yl)isochroman-1-yl)methanamine hydrochloride salt]	3 to 10	++ (5% ≤ ++ <25%)	+ (LOQ ≤ + <5%)	++ (5% ≤ ++ <25%)	+ (LOQ ≤ + <5%)	++++ (50% ≤ ++++)	+ (LOQ ≤ + <5%)	+ (LOQ ≤ + <5%)	+ (LOQ ≤ + <5%)	+ (LOQ ≤ + <5%)
NC[C@H]1OCc2c(-c3cccnc3)cccc21 [Compound 36, (S)-(4-(Pyridin-3-yl)-1,3-dihydroisobenzofuran-1-yl)methanamine hydrochloride]	≤ 3	++ (5% ≤ ++ <25%)	+ (LOQ ≤ + <5%)	+ (LOQ ≤ + <5%)	++ (5% ≤ ++ <25%)	++++ (50% ≤ ++++)	+ (LOQ ≤ + <5%)	+ (LOQ ≤ + <5%)	+ (LOQ ≤ + <5%)	+ (LOQ ≤ + <5%)
